Data published in ChEMBL document CHEMBL1138125, “A new chemical tool for exploring the role of the PDE4D isozyme in leukocyte function” (Bioorg Med Chem Lett, 2006).

What was measured:
[1] = molecular target: cGMP-dependent 3',5'-cyclic phosphodiesterase (Homo sapiens, UniProt O00408); test: Inhibition of PDE2
Phosphodiesterase 3 = Phosphodiesterase 3 (Homo sapiens, UniProt Q14432+Q13370); test: Inhibition of PDE3; format: protein assay
[2] = molecular target: High affinity cAMP-specific and IBMX-insensitive 3',5'-cyclic phosphodiesterase 8A (Homo sapiens, UniProt O60658); test: Inhibition of PDE8A
[3] = molecular target: High affinity cAMP-specific and IBMX-insensitive 3',5'-cyclic phosphodiesterase 8B (Homo sapiens, UniProt O95263); test: Inhibition of PDE8B
[4] = molecular target: High affinity cGMP-specific 3',5'-cyclic phosphodiesterase 9A (Homo sapiens, UniProt O76083); test: Inhibition of PDE9
[5] = molecular target: Dual 3',5'-cyclic-AMP and -GMP phosphodiesterase 11A (Homo sapiens, UniProt Q9HCR9); test: Inhibition of PDE11
[6] = molecular target: T1, 3',5'-cyclic-AMP phosphodiesterase 4D (Homo sapiens, UniProt Q08499); details: Blood
Description: Inhibition of release of Eosinophil derived neurotoxin in human whole blood

[7] = molecular target: T1, 3',5'-cyclic-AMP phosphodiesterase 4D; test: Inhibition of release of LTE4 in human whole blood; format: functional, tissue-based
[8] = molecular target: T2, 3',5'-cyclic-AMP phosphodiesterase 4B (Homo sapiens, UniProt Q07343); test: Inhibition of release of TNF alpha in human whole blood; format: functional, tissue-based
Cynomolgus monkey = test: Inhibition of eosinophil infiltration in bronchoalveolar lavage fluid from cynomolgus monkeys exposed to Ascaris suum.; format: functional, Macaca fascicularis, Lung
[9] = molecular target: 5-hydroxytryptamine receptor 7 (Homo sapiens) (UniProt P34969); test: Binding affinity to serotonin 5HT7 receptor at 10 uM
[10] = molecular target: 3',5'-cyclic-AMP phosphodiesterase 4A (Homo sapiens, UniProt P27815); test: Inhibition of PDE4A
[11] = molecular target: T2, 3',5'-cyclic-AMP phosphodiesterase 4B; test: Inhibition of PDE4B
[12] = molecular target: 3',5'-cyclic-AMP phosphodiesterase 4C (Homo sapiens, UniProt Q08493); test: Inhibition of PDE4C
[13] = molecular target: T1, 3',5'-cyclic-AMP phosphodiesterase 4D; test: Inhibition of PDE4D
[14] = molecular target: cGMP-specific 3',5'-cyclic phosphodiesterase (Homo sapiens, UniProt O76074); test: Inhibition of PDE5
[15] = molecular target: cAMP and cAMP-inhibited cGMP 3',5'-cyclic phosphodiesterase 10A (Homo sapiens, UniProt Q9Y233); test: Inhibition of PDE10
[16] = molecular target: T1, 3',5'-cyclic-AMP phosphodiesterase 4D; test: cAMP elevation in U937 cells; format: functional, cell-based, U-937
[17] = molecular target: 5-hydroxytryptamine receptor 1A (Homo sapiens) (UniProt P08908); test: Binding affinity to serotonin 5HT1A receptor at 10 uM
[18] = molecular target: Serotonin 3 (5-HT3) receptor (Homo sapiens) (UniProt P46098+A5X5Y0+O95264+Q70Z44+Q8WXA8); test: Binding affinity to serotonin 5HT3 receptor at 10 uM; format: protein-complex assay
[19] = molecular target: 5-hydroxytryptamine receptor 4 (Homo sapiens) (UniProt Q13639); test: Binding affinity to serotonin 5HT4 receptor at 10 uM
[20] = molecular target: Sodium-dependent serotonin transporter (Homo sapiens) (UniProt P31645); test: Binding affinity to serotonin transporter at 10 uM
[21] = molecular target: Glucocorticoid receptor (Homo sapiens) (UniProt P04150); test: Binding affinity to glucocorticoid receptor at 10 uM
[22] = molecular target: Thyroid hormone receptor (Homo sapiens) (UniProt P10827+P10828); test: Binding affinity to thyroid hormone receptor at 10 uM; format: protein-complex assay
[23] = molecular target: Vasopressin V1 receptor (Homo sapiens) (UniProt P37288+P47901); test: Binding affinity to vasopressin V1 receptor at 10 uM; format: protein assay
[24] = molecular target: Vasopressin V2 receptor (Homo sapiens) (UniProt P30518); test: Binding affinity to vasopressin V2 receptor at 10 uM
[25] = molecular target: T3, Voltage-gated L-type calcium channel (Homo sapiens, UniProt Q13936+Q13698+Q01668+O60840); test: Binding affinity to DHP sensitive calcium channel L type at 10 uM; format: protein assay
[26] = molecular target: T3, Voltage-gated L-type calcium channel; test: Binding affinity to dilitiazem sensitive calcium channel L type at 10 uM; format: protein assay
[27] = molecular target: T3, Voltage-gated L-type calcium channel; test: Binding affinity to verapamil sensitive calcium channel L type at 10 uM; format: protein assay
[28] = molecular target: Voltage-dependent N-type calcium channel subunit alpha-1B (Homo sapiens) (UniProt Q00975); test: Binding affinity to calcium channel N type at 10 uM
[29] = molecular target: Type-1 angiotensin II receptor (Homo sapiens) (UniProt P30556); test: Binding affinity to angiotensin II receptor type 1 at 10 uM
[30] = molecular target: Type-2 angiotensin II receptor (Homo sapiens) (UniProt P50052); test: Binding affinity to angiotensin II receptor type 2 at 10 uM
[31] = molecular target: B1 bradykinin receptor (Homo sapiens) (UniProt P46663); test: Binding affinity to bradykinin B1 receptor at 10 uM
[32] = molecular target: B2 bradykinin receptor (Homo sapiens) (UniProt P30411); test: Binding affinity to bradykinin B2 receptor at 10 uM
[33] = molecular target: D(1A) dopamine receptor (Homo sapiens) (UniProt P21728); test: Binding affinity to dopamine D1 receptor at 10 uM
[34] = molecular target: D(2) dopamine receptor (Homo sapiens) (UniProt P14416); test: Binding affinity to dopamine D2 receptor at 10 uM
[35] = molecular target: D(3) dopamine receptor (Homo sapiens) (UniProt P35462); test: Binding affinity to dopamine D3 receptor at 10 uM
[36] = molecular target: D(4) dopamine receptor (Homo sapiens) (UniProt P21917); test: Binding affinity to dopamine D4 receptor at 10 uM
[37] = molecular target: Sodium-dependent dopamine transporter (Homo sapiens) (UniProt Q01959); test: Binding affinity to dopamine transporter at 10 uM
[38] = Binding affinity to GABA receptor at 10 uM
[39] = Binding affinity to GABA transporter at 10 uM
[40] = molecular target: Glutamate receptor ionotropic AMPA (Homo sapiens) (UniProt P48058+P42263+P42262+P42261); test: Binding affinity to AMPA receptor at 10 uM; format: protein-complex assay
[41] = molecular target: Glutamate receptor ionotropic kainate (Homo sapiens) (UniProt P39086+Q16478+Q16099+Q13002+Q13003); test: Binding affinity to kainate receptor at 10 uM; format: protein-complex assay
[42] = molecular target: Glutamate [NMDA] receptor (Homo sapiens) (UniProt Q05586+Q12879+Q13224+O15399+O60391+Q14957+Q8TCU5); test: Binding affinity to NMDA receptor at 10 uM; format: protein-complex assay
[43] = molecular target: Histamine H1 receptor (Homo sapiens) (UniProt P35367); test: Binding affinity to Histamine H1 receptor at 10 uM
[44] = molecular target: Histamine H2 receptor (Homo sapiens) (UniProt P25021); test: Binding affinity to Histamine H2 receptor at 10 uM
[45] = molecular target: Histamine H3 receptor (Homo sapiens) (UniProt Q9Y5N1); test: Binding affinity to Histamine H3 receptor at 10 uM
[46] = molecular target: Melanocortin receptor 4 (Homo sapiens) (UniProt P32245); test: Binding affinity to MCR4 at 10 uM
[47] = molecular target: Muscarinic acetylcholine receptor M1 (Homo sapiens) (UniProt P11229); test: Binding affinity to Muscarinic M1 receptor at 10 uM
[48] = molecular target: Muscarinic acetylcholine receptor M2 (Homo sapiens) (UniProt P08172); test: Binding affinity to Muscarinic M2 receptor at 10 uM
[49] = molecular target: Muscarinic acetylcholine receptor M3 (Homo sapiens) (UniProt P20309); test: Binding affinity to Muscarinic M3 receptor at 10 uM
[50] = molecular target: Muscarinic acetylcholine receptor M4 (Homo sapiens) (UniProt P08173); test: Binding affinity to Muscarinic M4 receptor at 10 uM
[51] = molecular target: High affinity choline transporter 1 (Homo sapiens) (UniProt Q9GZV3); test: Binding affinity to choline transporter at 10 uM
[52] = molecular target: Substance-P receptor (Homo sapiens) (UniProt P25103); test: Binding affinity to neurokinin K1 receptor at 10 uM
[53] = Binding affinity to nicotinic neuronal receptor at 10 uM
[54] = molecular target: Acetylcholine receptor; alpha1/beta1/delta/gamma (Homo sapiens) (UniProt P02708+P07510+P11230+Q07001); test: Binding affinity to nicotinic muscle receptor at 10 uM; format: protein-complex assay
[55] = molecular target: Delta-type opioid receptor (Homo sapiens) (UniProt P41143); test: Binding affinity to opiate delta receptor at 10 uM
[56] = molecular target: Kappa-type opioid receptor (Homo sapiens) (UniProt P41145); test: Binding affinity to opiate kappa receptor at 10 uM
[57] = molecular target: Mu-type opioid receptor (Homo sapiens) (UniProt P35372); test: Binding affinity to opiate mu receptor at 10 uM
[58] = molecular target: Platelet-activating factor receptor (Homo sapiens) (UniProt P25105); test: Binding affinity to platelet activating factor at 10 uM
[59] = molecular target: Adenosine receptor A1 (Homo sapiens) (UniProt P30542); test: Binding affinity to adenosine A1 receptor at 10 uM
[60] = molecular target: Adenosine receptor A2a (Homo sapiens) (UniProt P29274); test: Binding affinity to adenosine A2A receptor at 10 uM
[61] = molecular target: Adenosine receptor A3 (Homo sapiens) (UniProt P0DMS8); test: Binding affinity to adenosine A3 receptor at 10 uM
[62] = molecular target: Adrenergic receptor alpha-1 (Homo sapiens) (UniProt P35348+P25100+P35368); test: Binding affinity to Adrenergic alpha-1 receptor at 10 uM; format: protein assay
[63] = molecular target: Adrenergic receptor alpha-2 (Homo sapiens) (UniProt P08913+P18825+P18089); test: Binding affinity to Adrenergic alpha-2 receptor at 10 uM; format: protein assay
[64] = molecular target: Beta-1 adrenergic receptor (Homo sapiens) (UniProt P08588); test: Binding affinity to adrenergic beta-1 receptor at 10 uM
[65] = molecular target: Beta-2 adrenergic receptor (Homo sapiens) (UniProt P07550); test: Binding affinity to adrenergic beta2 receptor at 10 uM
[66] = molecular target: Sodium-dependent noradrenaline transporter (Homo sapiens) (UniProt P23975); test: Binding affinity to norepinephrine transporter at 10 uM

T1 sequence (Q08499 whole entry): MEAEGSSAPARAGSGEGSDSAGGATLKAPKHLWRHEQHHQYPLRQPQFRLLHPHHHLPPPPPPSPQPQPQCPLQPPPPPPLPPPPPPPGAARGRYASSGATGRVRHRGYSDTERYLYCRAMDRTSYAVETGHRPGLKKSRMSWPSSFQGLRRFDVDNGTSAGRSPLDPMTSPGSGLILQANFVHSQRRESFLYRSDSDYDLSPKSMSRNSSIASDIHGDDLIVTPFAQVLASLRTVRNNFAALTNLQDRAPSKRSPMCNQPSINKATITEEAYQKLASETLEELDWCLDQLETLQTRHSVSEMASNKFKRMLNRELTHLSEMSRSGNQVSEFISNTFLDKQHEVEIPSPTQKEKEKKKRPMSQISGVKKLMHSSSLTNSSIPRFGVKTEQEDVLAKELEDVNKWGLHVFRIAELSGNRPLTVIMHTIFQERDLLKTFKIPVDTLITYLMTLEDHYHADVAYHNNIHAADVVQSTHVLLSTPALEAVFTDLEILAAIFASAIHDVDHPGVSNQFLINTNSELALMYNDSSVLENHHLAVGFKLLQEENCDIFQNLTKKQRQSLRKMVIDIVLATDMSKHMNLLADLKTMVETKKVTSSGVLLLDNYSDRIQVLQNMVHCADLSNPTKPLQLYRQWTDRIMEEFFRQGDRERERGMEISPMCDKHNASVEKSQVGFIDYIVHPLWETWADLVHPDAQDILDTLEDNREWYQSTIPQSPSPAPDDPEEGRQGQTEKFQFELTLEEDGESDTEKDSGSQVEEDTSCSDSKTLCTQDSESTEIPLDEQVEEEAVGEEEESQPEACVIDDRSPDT
Sequence of High affinity cGMP-specific 3',5'-cyclic phosphodiesterase 9A (O76083 whole entry): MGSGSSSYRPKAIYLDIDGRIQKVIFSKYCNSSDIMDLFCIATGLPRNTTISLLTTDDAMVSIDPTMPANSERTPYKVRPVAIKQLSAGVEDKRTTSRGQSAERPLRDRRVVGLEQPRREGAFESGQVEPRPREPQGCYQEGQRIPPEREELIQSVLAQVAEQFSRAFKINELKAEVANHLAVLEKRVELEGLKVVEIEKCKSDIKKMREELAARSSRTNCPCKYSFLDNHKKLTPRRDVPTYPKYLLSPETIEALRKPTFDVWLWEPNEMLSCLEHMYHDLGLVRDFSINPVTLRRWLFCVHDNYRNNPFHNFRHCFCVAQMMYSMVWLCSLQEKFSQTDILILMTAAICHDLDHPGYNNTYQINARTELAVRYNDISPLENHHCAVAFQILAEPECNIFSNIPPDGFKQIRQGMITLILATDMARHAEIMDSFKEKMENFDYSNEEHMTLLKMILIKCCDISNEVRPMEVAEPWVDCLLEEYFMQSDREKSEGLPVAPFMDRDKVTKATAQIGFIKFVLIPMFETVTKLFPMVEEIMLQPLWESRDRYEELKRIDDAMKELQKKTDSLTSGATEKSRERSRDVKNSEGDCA
Sequence of cGMP-dependent 3',5'-cyclic phosphodiesterase (O00408 whole entry): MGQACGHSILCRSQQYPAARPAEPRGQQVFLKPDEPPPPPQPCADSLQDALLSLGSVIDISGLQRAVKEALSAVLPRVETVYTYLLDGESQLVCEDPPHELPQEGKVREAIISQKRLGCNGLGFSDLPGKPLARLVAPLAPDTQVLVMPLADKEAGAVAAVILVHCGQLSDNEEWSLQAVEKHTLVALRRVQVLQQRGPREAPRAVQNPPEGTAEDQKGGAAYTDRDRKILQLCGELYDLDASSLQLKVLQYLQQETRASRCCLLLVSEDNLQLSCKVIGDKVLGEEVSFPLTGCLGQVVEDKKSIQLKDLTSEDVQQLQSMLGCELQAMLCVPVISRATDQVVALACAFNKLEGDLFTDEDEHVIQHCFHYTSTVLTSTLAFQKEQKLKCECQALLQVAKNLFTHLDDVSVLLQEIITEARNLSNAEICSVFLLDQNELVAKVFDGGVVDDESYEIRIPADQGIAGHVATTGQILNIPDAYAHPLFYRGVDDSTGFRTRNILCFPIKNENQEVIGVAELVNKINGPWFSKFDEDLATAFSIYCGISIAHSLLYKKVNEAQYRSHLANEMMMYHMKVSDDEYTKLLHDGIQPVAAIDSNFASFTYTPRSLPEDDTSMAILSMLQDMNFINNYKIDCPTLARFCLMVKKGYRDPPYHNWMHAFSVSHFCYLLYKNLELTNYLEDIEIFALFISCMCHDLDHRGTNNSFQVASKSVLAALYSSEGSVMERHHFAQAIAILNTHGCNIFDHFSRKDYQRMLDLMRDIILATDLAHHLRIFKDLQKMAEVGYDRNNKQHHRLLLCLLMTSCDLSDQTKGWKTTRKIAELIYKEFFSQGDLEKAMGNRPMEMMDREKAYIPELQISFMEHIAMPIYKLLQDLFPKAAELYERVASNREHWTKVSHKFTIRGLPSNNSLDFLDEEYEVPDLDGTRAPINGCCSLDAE
T2 sequence (Q07343 whole entry): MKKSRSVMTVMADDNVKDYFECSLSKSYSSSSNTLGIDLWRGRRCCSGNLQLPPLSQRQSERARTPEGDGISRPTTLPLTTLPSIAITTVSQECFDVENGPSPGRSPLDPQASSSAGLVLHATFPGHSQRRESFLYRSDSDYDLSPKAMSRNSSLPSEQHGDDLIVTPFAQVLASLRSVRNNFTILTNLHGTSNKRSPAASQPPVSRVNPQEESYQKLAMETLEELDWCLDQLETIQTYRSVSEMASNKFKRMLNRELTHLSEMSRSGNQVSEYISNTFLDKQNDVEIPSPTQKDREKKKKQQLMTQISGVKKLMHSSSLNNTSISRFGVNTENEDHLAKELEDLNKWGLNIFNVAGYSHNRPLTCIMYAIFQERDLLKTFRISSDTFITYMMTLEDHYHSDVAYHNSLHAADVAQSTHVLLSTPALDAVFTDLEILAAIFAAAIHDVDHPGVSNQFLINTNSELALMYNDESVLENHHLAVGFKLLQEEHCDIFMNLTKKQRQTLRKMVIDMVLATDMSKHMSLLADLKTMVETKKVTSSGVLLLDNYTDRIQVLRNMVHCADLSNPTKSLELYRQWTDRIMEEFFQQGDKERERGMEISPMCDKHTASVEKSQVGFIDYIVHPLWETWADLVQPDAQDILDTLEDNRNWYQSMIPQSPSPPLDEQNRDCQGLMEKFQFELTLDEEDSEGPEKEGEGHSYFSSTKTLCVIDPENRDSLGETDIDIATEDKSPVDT
Sequence of High affinity cAMP-specific and IBMX-insensitive 3',5'-cyclic phosphodiesterase 8B (O95263 whole entry): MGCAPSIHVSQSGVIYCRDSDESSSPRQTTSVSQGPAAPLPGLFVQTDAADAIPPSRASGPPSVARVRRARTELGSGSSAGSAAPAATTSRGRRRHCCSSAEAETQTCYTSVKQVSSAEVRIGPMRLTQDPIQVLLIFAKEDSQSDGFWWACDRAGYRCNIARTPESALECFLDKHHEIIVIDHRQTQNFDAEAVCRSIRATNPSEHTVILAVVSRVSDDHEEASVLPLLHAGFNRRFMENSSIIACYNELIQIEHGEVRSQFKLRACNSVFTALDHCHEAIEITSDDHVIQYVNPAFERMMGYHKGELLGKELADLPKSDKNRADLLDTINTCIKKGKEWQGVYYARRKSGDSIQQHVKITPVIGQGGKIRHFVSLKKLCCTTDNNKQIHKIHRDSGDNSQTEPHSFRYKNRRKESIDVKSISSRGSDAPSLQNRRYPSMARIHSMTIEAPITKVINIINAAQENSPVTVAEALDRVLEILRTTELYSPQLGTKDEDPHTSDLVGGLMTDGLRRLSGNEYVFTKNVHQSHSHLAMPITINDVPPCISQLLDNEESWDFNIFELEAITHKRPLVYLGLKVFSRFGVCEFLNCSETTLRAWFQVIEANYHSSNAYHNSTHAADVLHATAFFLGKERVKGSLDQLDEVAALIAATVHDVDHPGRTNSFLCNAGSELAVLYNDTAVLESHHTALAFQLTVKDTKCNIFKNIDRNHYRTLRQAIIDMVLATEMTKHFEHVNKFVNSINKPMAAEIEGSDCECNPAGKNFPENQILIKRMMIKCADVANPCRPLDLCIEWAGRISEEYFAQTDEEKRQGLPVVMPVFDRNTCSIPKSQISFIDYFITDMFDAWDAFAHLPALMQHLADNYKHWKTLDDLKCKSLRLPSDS
Sequence of High affinity cAMP-specific and IBMX-insensitive 3',5'-cyclic phosphodiesterase 8A (O60658 whole entry): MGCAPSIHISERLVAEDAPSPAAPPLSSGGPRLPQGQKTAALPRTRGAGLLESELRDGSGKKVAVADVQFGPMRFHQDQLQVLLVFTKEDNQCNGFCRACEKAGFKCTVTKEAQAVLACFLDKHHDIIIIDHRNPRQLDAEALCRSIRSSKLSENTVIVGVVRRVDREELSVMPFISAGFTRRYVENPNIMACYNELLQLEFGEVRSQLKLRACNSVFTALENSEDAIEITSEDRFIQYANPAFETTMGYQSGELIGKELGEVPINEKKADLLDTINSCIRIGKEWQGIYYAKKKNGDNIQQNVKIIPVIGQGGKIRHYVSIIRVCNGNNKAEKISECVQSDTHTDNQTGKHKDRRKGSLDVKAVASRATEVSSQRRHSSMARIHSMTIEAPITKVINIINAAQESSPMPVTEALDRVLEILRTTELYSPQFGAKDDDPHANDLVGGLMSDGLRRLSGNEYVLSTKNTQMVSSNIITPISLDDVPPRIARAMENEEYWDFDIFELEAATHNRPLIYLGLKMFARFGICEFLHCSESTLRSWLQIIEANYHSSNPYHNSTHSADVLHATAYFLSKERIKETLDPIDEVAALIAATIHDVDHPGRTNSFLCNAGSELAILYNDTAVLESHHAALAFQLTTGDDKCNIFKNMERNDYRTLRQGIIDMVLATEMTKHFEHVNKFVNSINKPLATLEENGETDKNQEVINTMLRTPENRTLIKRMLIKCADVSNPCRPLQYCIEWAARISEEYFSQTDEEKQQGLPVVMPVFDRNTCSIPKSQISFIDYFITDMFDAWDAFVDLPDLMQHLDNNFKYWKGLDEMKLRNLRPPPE

COc1ccc(C2CNC(=O)C2)cc1OC1CCCC1 (centres undefined) [ROLIPRAM]
IC50 [1]: > 16 µM | IC50 (Phosphodiesterase 3): > 16 µM | IC50 [2]: > 16 µM | IC50 [3]: > 16 µM | IC50 [4]: > 16 µM | IC50 [5]: > 16 µM | IC30 [6]: 0.283 µM

C[C@@H](NC(=O)c1cccnc1Oc1ccc(F)cc1)c1cccs1
IC50 [7]: 0.002 µM | IC50 [8]: 0.925 µM | Inhibition (Cynomolgus monkey): 65% | Activity [9]: 0% | IC50 [1]: > 16 µM | IC50 [10]: 0.107 µM | IC50 (Phosphodiesterase 3): > 16 µM | IC50 [11]: 0.185 µM | IC50 [12]: 1.38 µM | IC50 [13]: 0.004 µM | IC50 [14]: > 16 µM | IC50 [2]: > 16 µM | IC50 [3]: > 16 µM | IC50 [4]: > 16 µM | IC50 [15]: > 16 µM | EC50 [16]: 0.022 µM | Activity [17]: 5% | Activity [18]: 4% | Activity [19]: 14% | Activity [20]: 0% | Activity [21]: 0% | Activity [22]: 8% | Activity [23]: 26% | Activity [24]: 9% | Activity [25]: 25% | Activity [26]: 6% | Activity [27]: 0% | Activity [28]: 0% | Activity [29]: 3% | Activity [30]: 0% | Activity [31]: 0% | Activity [32]: 0% | Activity [33]: 27% | Activity [34]: 0% | Activity [35]: 0% | Activity [36]: 9% | Activity [37]: 23% | Activity [38]: 0% | Activity [39]: 22% | Activity [40]: 10% | Activity [41]: 0% | Activity [42]: 0% | Activity [43]: 4% | Activity [44]: 0% | Activity [45]: 0% | Activity [46]: 22% | Activity [47]: 0% | Activity [48]: 1% | Activity [49]: 5% | Activity [50]: 12% | Activity [51]: 60% | Activity [52]: 27% | Activity [53]: 3% | Activity [54]: 22% | Activity [55]: 18% | Activity [56]: 21% | Activity [57]: 15% | Activity [58]: 23% | Activity [59]: 12% | Activity [60]: 23% | Activity [61]: 31% | Activity [62]: 0% | Activity [63]: 0% | Activity [64]: 12% | Activity [65]: 6% | Activity [66]: 14% | IC30 [6]: 0.016 µM
